Consider 31 compounds from patent US6967196B1, “Sulfonamide compounds and uses thereof” (Bristol-Myers Squibb Company, priority 1999, dated 2005).

Counter-ions that a name gives are not always drawn.

In one assay the test system is amyloid β production in transfected H4 (human neuroglioma) cells stably expressing APP constructs. The experiment in a line: In vitro cell-based assay of inhibitors of amyloid β production (ELISA). As to conditions: Homo sapiens, 16 h, transfected H4 cells expressing APP, approximately 16 hours incubation, amyloid β in medium by ELISA; read-out: ACTIVITY (IC50, inhibition of amyloid β production). Put shortly: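 Cells expressing wild-type or variant APP were plated ≥6 h before medium was replaced with compound-containing medium (initial screen 10-100 μM) and incubated ~16 h. Secreted Aβ in medium was quantified by sandwich ELISA (C-terminal-specific mouse monoclonal capture, N-terminal rabbit polyclonal detection) against an Aβ standard curve.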
On the technique in general: In an ELISA, binding on a coated surface is turned into a signal by an enzyme label.
Take `C[C@H](C(=O)NCCC(c1ccccc1)c1ccccc1)N(c1cc(Cl)ccc1F)S(=O)(=O)c1ccc(Cl)cc1` [Example 1302]: the IC50 is above 0.5 µM.
On the same count and under the same terms, the value for `C[C@H](CCCOC(=O)N(C)CCO)N(c1cc(Cl)ccc1CO)S(=O)(=O)c1ccc(Cl)cc1` [Example 1297] was at most 0.025 µM.
The same measure, in the same setting: under `C[C@H](COC(=O)NC1CCCCC1)N(c1cc(Cl)ccc1CO)S(=O)(=O)c1ccc(Cl)cc1` [Example 1284] stands at most 0.025 µM; under `C[C@H](C(=O)NCCc1ccccc1F)N(c1cc(Cl)ccc1F)S(=O)(=O)c1ccc(Cl)cc1` [Example 1359], above 0.5 µM; under `C[C@H](C(=O)NCCCCO)N(c1cc(Cl)ccc1F)S(=O)(=O)c1ccc(Cl)cc1` [Example 1360], 0.1 to 0.5 µM.

Still in this assay, the particulars now being: Homo sapiens, 16 h, transfected H4 cells stably expressing APP constructs; approximately 16 hours incubation; amyloid β in medium by ELISA; read-out: ACTIVITY (IC50, inhibition of amyloid β production).
With `C[C@H](CCCN1CCCCC1CS(C)(=O)=O)N(c1cc(Cl)ccc1Cl)S(=O)(=O)c1ccc(Cl)cc1` (stereo partly drawn) [Example 1121, 4-chloro-N-(2,5-dichlorophenyl)-N-[4-[2-[(methylsulfonyl)methyl]-1-piperidinyl]-1(R)-methylbutyl]benzenesulfonamide], the IC50 fell in the range of 0.05 to 0.1 µM.

The assay is the same for the next values; noted with them: Homo sapiens, 16 h, transfected H4 cells stably expressing APP; approx. 16 h incubation; amyloid β in medium by ELISA; read-out: ACTIVITY (IC50, inhibition of amyloid β production).
Regarding `O=C(c1ccccc1)N1CCCCC1CCOc1ccccc1CN(c1cc(F)ccc1F)S(=O)(=O)c1ccc(Cl)cc1` (stereo not shown) [Example 745, N-{2-[2-(1-benzoyl-2-piperidinyl)ethoxy]benzyl}-4-chloro-N-(2,5-difluorophenyl)benzenesulfonamide], the IC50 is 0.1 to 0.5 µM.

The same assay, now with this note: Homo sapiens, 16 h, transfected H4 cells stably expressing APP; approximately 16 hours incubation; amyloid β in medium by ELISA; read-out: ACTIVITY (IC50, inhibition of amyloid β production).
Regarding `O=S(=O)(c1ccc(Cl)cc1)N(Cc1ccccc1OCCCn1ccnc1)c1ccccc1` [Example 882, 4-chloro-N-{2-[3-(1H-imidazol-1-yl)propoxy]benzyl}-N-phenylbenzenesulfonamide hydrochloride], the IC50 is above 0.5 µM.
Still for that read-out and setting: the value for `O=S(=O)(c1ccc(Cl)cc1)N(Cc1ccccc1OCCCN1CCCCC1)C1Cc2ccccc2C1` [Example 1020, 4-chloro-N-(2,3-dihydro-1H-inden-2-yl)-N-{2-[3-(1-piperidinyl)propoxy]benzyl}benzenesulfonamide hydrochloride] was above 0.5 µM; that for `C[C@H](c1ccc(F)cc1CCCO)N(c1cc(F)ccc1F)S(=O)(=O)c1ccc(Cl)cc1` [Example 1063, 4-chloro-N-(2,5-difluorophenyl)-N-((1R)-1-[4-fluoro-2-(3-hydroxypropyl)phenyl]ethyl}benzenesulfonamide] was above 0.5 µM; that for `O=S(=O)(c1ccc(Cl)cc1)N(Cc1ccccc1OCCCN1CCC(CO)CC1)c1ccccc1` [Example 922, 4-chloro-N-(2-{3-[4-(hydroxymethyl)-1-piperidinyl]propoxy}benzyl)-N-phenylbenzenesulfonamide hydrochloride] was above 0.5 µM.
Still for that read-out and setting: under `C[C@H](c1ccccc1OCCCN)N(c1cc(F)ccc1F)S(=O)(=O)c1cccc(Cl)c1` [Example 836, N-{(1R)-1-[2-(3-aminopropoxy)phenyl}ethyl}-3-chloro-N-(2,5-difluorophenyl)benzenesulfonamide] stands 0.1 to 0.5 µM.

Still in this assay, the particulars now being: Table B; transfected H4 cells stably expressing APP; approximately 16 hours incubation; amyloid β in medium by ELISA; read-out: ACTIVITY (inhibitory concentration IC50, inhibition of amyloid β production).
As for `C[C@H](O)CO[Si](C)(C)C(C)(C)C` [Example 21], the IC50 was at most 0.025 µM.
With `O=S(=O)(c1ccc(Cl)cc1)N(Cc1cc(Cl)ccc1OCCCN1CCCCC1)c1ccccc1` [Example 230, 4-Chloro-N-{5-chloro-2-[3-(1-piperidinyl)propoxy]benzyl}-N-phenylbenzenesulfonamide Hydrochloride], the IC50 was 0.025 to 0.05 µM.

Staying with this assay, now noted: transfected H4 cells expressing APP, approximately 16 hours incubation, amyloid β in medium by ELISA; read-out: ACTIVITY (IC50, inhibition of amyloid β production).
As for `C[C@H](C(=O)NCc1cc(F)ccc1F)N(c1cc(Cl)ccc1F)S(=O)(=O)c1ccc(Cl)cc1` [Example 1356], the IC50 was above 0.5 µM.

Still in this assay, the particulars now being: transfected H4 cells stably expressing APP constructs; approximately 16 hours incubation; amyloid β in medium by ELISA; read-out: ACTIVITY (IC50, inhibition of amyloid β production).
As to “(R)-4-Chloro-N-(2,5-difluorophenyl)-N-[1-[4-fluoro-2-[1-(2-methyl-4-thiomorpholinyl)butanoyl]phenyl]ethyl]benzenesulfonamide [Example 1276]”, the IC50 was at most 0.025 µM.
Still for that read-out and setting: under `CCN(CCCn1ccnc1)C(=O)OC[C@@H](C)N(c1cc(Cl)ccc1Cl)S(=O)(=O)c1ccc(Cl)cc1` [Example 1247, 4-Chloro-N-(2,5-dichlorophenyl)-N-[2-[[[N′-[3-(1H-imidazol-1-yl)propyl]-N′-ethylamino]carbonyl]oxy]-(R)-1-methylethyl]benzenesulfonamide] stands at most 0.025 µM; under `C[C@H](COC(=O)N(C)CCO)N(c1cc(Cl)ccc1Cl)S(=O)(=O)c1ccc(Cl)cc1` [Example 1249, 4-Chloro-N-(2,5-dichlorophenyl)-N-[2-[[N′-[2-(hydroxyethyl)-N′-methylamino]carbonyl]oxy]-(R)-1-methylethyl]benzenesulfonamide], at most 0.025 µM.
For `C[C@H](CCC[S+](C)[O-])N(c1cc(Cl)ccc1F)S(=O)(=O)c1ccc(Cl)cc1` (stereo partly drawn) [Example 1167, 4-chloro-N-[5-chloro-2-fluorophenyl]-N-[1(R)-methyl-(4-methylsulfinyl)butyl]benzenesulfonamide], the IC50 was at most 0.025 µM.
Same read-out and setting: the value for `C[C@H](CCCN1CCCC(S(C)(=O)=O)C1)N(c1cc(Cl)ccc1Cl)S(=O)(=O)c1ccc(Cl)cc1` (stereo partly drawn) [Example 1109, 4-chloro-N-(2,5-dichlorophenyl)-N-[4-[(3-methylsulfonyl)-1-piperidinyl]-1(R)-methylbutyl]benzenesulfonamide] was at most 0.025 µM; that for `C[C@H](CCCN1CCCC(S(C)(=O)=O)C1)N(c1cc(Cl)ccc1Cl)S(=O)(=O)c1ccc(Cl)cc1` (stereo partly shown) [Example 1136] was 0.1 to 0.5 µM.

The same assay, now with this note: transfected H4 cells stably expressing APP; approx. 16 h incubation; amyloid β in medium by ELISA; read-out: ACTIVITY (IC50, inhibition of amyloid β production).
As to “N-{3-[2-(1-{[(4-chlorophenyl)sulfonyl]-2,5-difluoroanilino}methyl)phenoxy]propyl}-2-fluoro-N-methylbenzamide [Example 733]”, the IC50 lay in the range of 0.1 to 0.5 µM.
As for “N-{3-[2-(1-{[(4-chlorophenyl)sulfonyl]-2,5-difluoroanilino}ethyl)phenoxy]propyl}-3-fluoro-N-methylbenzamide [Example 699]”, the IC50 was 0.1 to 0.5 µM.
The same measure, in the same setting: the value for “methyl (2S)-2-[[2-((1R)-1-{[(4-chlorophenyl)sulfonyl]-2,5-difluoroanilino}ethyl)benzyl](methyl)amino]propanoate [Example 779]” was 0.1 to 0.5 µM; that for “N-{4-[2-(1-{[(4-chlorophenyl)sulfonyl]-2,5-difluoroanilino}ethyl)phenoxy]butyl}-N,2,4-trimethylpentanamide [Example 700]” was 0.1 to 0.5 µM.
The same measure, in the same setting: under `C[C@H](C(=O)NCc1ccccn1)N(c1cc(Cl)ccc1F)S(=O)(=O)c1ccc(Cl)cc1` [Example 610] stands 0.1 to 0.5 µM; under “N-{3-[2-(1-{[(4-chlorophenyl)sulfonyl]-2,5-difluoroanilino}ethyl)phenoxy]propyl}-2,4-dimethoxy-N-methylbenzamide [Example 753]”, 0.1 to 0.5 µM.

The assay is the same for the next values; noted with them: transfected H4 cells stably expressing APP; approximately 16 hours incubation; amyloid β in medium by ELISA; read-out: ACTIVITY (IC50, inhibition of amyloid β production).
On to “N-{3-[2-({[(4-chlorophenyl)sulfonyl]-2,5-difluoroanilino}methyl)phenoxy]propyl}-N,4-dimethyl-3-nitrobenzamide [Example 907]”, for which the IC50 is above 0.5 µM.
Still for that read-out and setting: under “N-{3-[2-({[(4-chlorophenyl)sulfonyl]-2,5-difluoroanilino}methyl)phenoxy]propyl}-N-methyl-2-phenylcyclopropanecarboxamide [Example 917]” stands above 0.5 µM.
The same measure, in the same setting: under “3-(2-{[(phenylsulfonyl)anilino]methyl}phenyl)propanoic acid [Example 993]” stands above 0.5 µM; under “(2E)-3-[2-({[(4-chlorophenyl)sulfonyl]anilino}methyl)phenyl]-2-propenoic acid [Example 1035]”, above 0.5 µM.
